Assay [1] relates to L1210. As to the kind of experiment: Cytotoxicity against mouse L1210 cells assessed as growth inhibition at 10^-4 M. In kind it is functional, cell-based.
In assay [2] the target is T1, Thymidylate synthase (Lactobacillus casei, UniProt P00469).
T1 sequence (P00469 whole entry): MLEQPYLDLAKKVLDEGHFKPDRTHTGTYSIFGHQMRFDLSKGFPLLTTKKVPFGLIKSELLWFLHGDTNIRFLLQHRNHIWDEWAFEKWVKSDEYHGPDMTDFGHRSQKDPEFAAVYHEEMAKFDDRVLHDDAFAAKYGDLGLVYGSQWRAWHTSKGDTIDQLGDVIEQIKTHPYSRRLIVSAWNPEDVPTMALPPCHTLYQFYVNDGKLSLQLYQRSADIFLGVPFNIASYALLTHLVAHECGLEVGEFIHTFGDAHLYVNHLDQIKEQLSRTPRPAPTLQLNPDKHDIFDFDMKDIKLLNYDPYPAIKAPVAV
The experiment in a line: Inhibition of dichloromethotrexate-resistant Lactobacillus casei thymidylate synthase by Dixon plot method. On the set-up: species or system Lacticaseibacillus casei.

The subject of assay [3] is L1210. The experiment in a line: Cytotoxicity against mouse L1210 cells assessed as growth inhibition at 5 x 10^-6 M. In kind it is functional, cell-based.
In assay [4] the target is T1, Thymidylate synthase. The experiment in a line: Reversible competitive inhibition of dichloromethotrexate-resistant Lactobacillus casei thymidylate synthase using […] as substrate by Dixon plot method. On the set-up: species or system Lacticaseibacillus casei. The following applies: read-out: Ki(app).

Each structure is given as a SMILES string. The source made the active and inactive calls. The calls are words filed in the database; no cut-off is given here.

`O=c1[nH]c(=O)n([C@H]2C[C@H](O)[C@@H](CO)O2)cc1[Se][Se]c1cn([C@H]2C[C@H](O)[C@@H](CO)O2)c(=O)[nH]c1=O`: in the assay with L1210 [1], the outcome was inactive.

As for `O=c1[nH]c(=O)n([C@H]2C[C@H](O)[C@@H](COP(=O)(O)O)O2)cc1S`, the Ki at Thymidylate synthase [2] came to 48 nM. Regarding `O=c1[nH]c(=O)n([C@H]2C[C@H](O)[C@@H](CO)O2)cc1S`, the result with L1210 [3] was Active. Regarding `O=c1[nH]c(=O)n([C@H]2C[C@H](O)[C@@H](COP(=O)(O)O)O2)cc1[SeH]`, the Ki at Thymidylate synthase [4] turned out to be 60 nM.

For the origin of these results see ChEMBL document CHEMBL3227965, “Synthesis of 5-selenium-substituted uracil derivatives. Inhibition of thymidylate synthetase by 5-hydroseleno-2'-deoxyuridylate” (J Med Chem, 1979).
